What was measured:
[1] = system: yeast cells specific to estrogens; assay: Calibration curves for 17-β estradiol with immobilized yeast biosensor; type: cell-based; conditions: yeast immobilized in matrix (2% atelocollagen, 0.5% polydimethylsiloxane); similar to liquid cultures
Excerpt: For example, the device employs S. cerevisiae cells specific for compounds with estrogenic/androgenic activity: for this aim an integrative vector with a regulatory element containing two or more tandem copies of the Androgen or Estrogen Responsive Element (ARE/ERE) upstream of the gene encoding for the bioluminescent reporter protein (e.g., luciferase from P. pyralis) and a vector encoding for human androgen or estrogen receptor were introduced in S. cerevisiae cells (A new highly specific and robust yeast androgen bioassay for the detection of agonists and antagonists Toine F. H. Boyce, Richard J. R. Helsdingen, Astrid R. M. Hamers, Majorie B. M. van Duursen, Michel W. F. Nielen, and Ron L. A. P. Hoogenboom). In this work, GFP is used as fluorescent reporter gene that also finds application in the present invention.
Analogously to Example 3, but with slight modifications to single components of the immobilization matrix (2% atelocollagen and 0.5% polydimethylsiloxane), a biosensor based on yeast cells specific to estrogens was immobilized.
Recombinant cells are grown in SC liquid culture (synthetic complete, selective for plasmid auxotrophies) at 30° C. up to an optical density at 600 nm of 0.6. Then, cells are immobilized as previously described.

[2] = system: recombinant E. coli cells specific for Cu^2+; assay: Calibration curve for copper with immobilized bioluminescent biosensor and control strain; type: cell-based; conditions: E. coli immobilized in the matrix; signal corrected with control strain constitutively expressing firefly luciferase
Protocol: For each calibration curve a limit of detection is calculated (LOD) according to the standard deviation on the blank signal measured with the calibration curve. It is provided by the analyte concentration corresponding to the signal XLOD:
A calibration curve for copper was performed by employing recombinant E. coli cells specific for Cu^2+ and a control strain that constitutively express firefly luciferase. The use of a control strain allows to correct the analytical signal with a detection limit of 0.05 ppm for Cu^2+.
Cells are grown in selective liquid medium at 37° C. (e.g., Luria Bertani Broth with antibiotic for plasmid maintenance) for each strain up to an optical density at 600 nm in the range 0.6-0.8.
Then, a buffered solution at pH 6.5-7.5 is added to each cell suspension containing nutrients and is mixed 1:2-1:4 with the immobilization matrix.
A solution containing 1% atelocollagen in PBS (NaCl 137 mM, KCl 2.7 mM, NaH2PO4 1.4 mM, Na2HPO4 4.3 mM) at pH 7.4 with decorin final concentration 15% w/w atelocollagen.
Polyvinylpyrrolidone (PVP) and modified polysiloxanes (e.g., polydimethylsiloxane, tetraethyl-orthosilicate) are added to a final concentration of 1% and 0.4%, respectively.

| SMILES | limit of detection [1] | detection limit [2] |
| --- | --- | --- |
| C[C@]12CC[C@@H]3c4ccc(O)cc4CC[C@H]3[C@@H]1CC[C@@H]2O [17-β estradiol] | 10 pM |  |
| [Cu+2] [Cu^2+] |  | 0.05 ppm |

Reference: patent publication US20120045835A1, “PORTABLE DEVICE BASED ON IMMOBILIZED CELLS FOR THE DETECTION OF ANALYTES” (priority 2009, published 2012)
